Test results taken from ChEMBL document CHEMBL4004838, “Design and synthesis of novel phenyl -1, 4-beta-carboline-hybrid molecules as potential anticancer agents” (Eur J Med Chem, 2017).
In brackets after ≈: the same amount, converted by molar mass.

Tests used:
MCF7 = test: Cytotoxicity against human MCF7 cells assessed as cell viability after 72 hrs by MTT assay; assay type: functional, cell-based; conditions: MCF7, 72 h
LNCaP = test: Cytotoxicity against human LNCAP cells assessed as cell viability after 72 hrs by MTT assay; assay type: functional, cell-based
HepG2 = test: Cytotoxicity against human HepG2 cells assessed as cell viability after 72 hrs by MTT assay; assay type: functional, cell-based; conditions: HepG2, 72 h
[1] = biological target: Kinesin-like protein KIF11 (Homo sapiens, UniProt P52732); test: Inhibition of EG5 (unknown origin)
Chain of Kinesin-like protein KIF11 (P52732 whole entry): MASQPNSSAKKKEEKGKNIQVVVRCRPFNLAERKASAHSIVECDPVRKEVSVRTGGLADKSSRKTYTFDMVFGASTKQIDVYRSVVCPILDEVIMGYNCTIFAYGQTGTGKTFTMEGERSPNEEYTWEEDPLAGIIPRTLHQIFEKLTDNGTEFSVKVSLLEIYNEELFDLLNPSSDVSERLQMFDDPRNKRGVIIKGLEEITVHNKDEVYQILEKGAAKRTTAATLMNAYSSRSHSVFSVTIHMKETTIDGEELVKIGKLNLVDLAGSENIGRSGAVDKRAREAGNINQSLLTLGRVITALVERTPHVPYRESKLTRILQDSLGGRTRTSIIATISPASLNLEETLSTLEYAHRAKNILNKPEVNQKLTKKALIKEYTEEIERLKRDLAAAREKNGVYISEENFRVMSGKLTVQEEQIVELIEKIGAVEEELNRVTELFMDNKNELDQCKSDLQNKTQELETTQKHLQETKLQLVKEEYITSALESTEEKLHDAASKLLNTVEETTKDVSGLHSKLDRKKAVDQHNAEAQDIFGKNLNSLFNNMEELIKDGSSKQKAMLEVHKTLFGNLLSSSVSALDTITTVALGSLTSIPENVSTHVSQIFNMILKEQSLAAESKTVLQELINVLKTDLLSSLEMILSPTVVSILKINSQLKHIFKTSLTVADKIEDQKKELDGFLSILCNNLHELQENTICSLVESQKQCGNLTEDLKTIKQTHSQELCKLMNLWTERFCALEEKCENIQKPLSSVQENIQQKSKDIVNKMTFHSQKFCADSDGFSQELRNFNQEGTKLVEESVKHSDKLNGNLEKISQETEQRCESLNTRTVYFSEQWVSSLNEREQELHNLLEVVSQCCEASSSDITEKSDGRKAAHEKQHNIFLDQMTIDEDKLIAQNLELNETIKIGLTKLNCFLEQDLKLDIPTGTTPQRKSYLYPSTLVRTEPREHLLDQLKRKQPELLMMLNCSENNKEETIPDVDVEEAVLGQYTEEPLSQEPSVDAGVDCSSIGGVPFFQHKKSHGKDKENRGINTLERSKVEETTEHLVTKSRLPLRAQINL

IC50 [1] | SMILES | IC50 (MCF7) | IC50 (LNCaP) | IC50 (HepG2)
 | c1ccc2c3c([nH]c2c1)[C@@H](c1ccc([C@H]2NCCc4c2[nH]c2ccccc42)cc1)NCC3 | 8.7 µg/mL (≈ 20.8 µM) | 15.2 µg/mL (≈ 36.4 µM) | 5.22 µg/mL (≈ 12.5 µM)
 | c1ccc2c3c([nH]c2c1)[C@H](c1ccc([C@@H]2NCCc4c2[nH]c2ccccc42)cc1)NCC3 | 5.19 µg/mL (≈ 12.4 µM) | 13.3 µg/mL (≈ 31.8 µM) | 6.22 µg/mL (≈ 14.9 µM)
 | COc1cccc2c1C(=O)c1c(O)c3c(c(O)c1C2=O)C[C@@](O)(C(=O)CO)C[C@@H]3O[C@H]1C[C@H](N)[C@H](O)[C@H](C)O1 [DOXORUBICIN] |  | 5.28 µg/mL (≈ 9.71 µM) | 4.23 µg/mL (≈ 7.78 µM)
800 nM | CCCCN1C(=O)[C@H]2Cc3c([nH]c4ccccc34)[C@@H](c3cccc(O)c3)N2C1=O |  |  | 
